Square brackets hold non-standard residues; d marks the D form. Ends that are not written are not given here. Peptide text beside a SMILES is read from it. hArg = N=C(N)NCCCC[C@H](N)C(=O)O; Nle = CCCC[C@H](N)C(=O)O; Aib = CC(C)(N)C(=O)O
How the values were obtained:
human P1R [1] = target: T1, human P1R (Homo sapiens, UniProt Q03431); experiment: cAMP stimulation in HKRK-B28 cells; assay type: cell-based; conditions: basal 4.0 ± 0.1 pmole/well not subtracted
T1 construct: expressed in transfected cells; host or cells: HKRK-B28 (porcine kidney LLC-PK1, stably transfected)
T1 sequence (Q03431 27-593): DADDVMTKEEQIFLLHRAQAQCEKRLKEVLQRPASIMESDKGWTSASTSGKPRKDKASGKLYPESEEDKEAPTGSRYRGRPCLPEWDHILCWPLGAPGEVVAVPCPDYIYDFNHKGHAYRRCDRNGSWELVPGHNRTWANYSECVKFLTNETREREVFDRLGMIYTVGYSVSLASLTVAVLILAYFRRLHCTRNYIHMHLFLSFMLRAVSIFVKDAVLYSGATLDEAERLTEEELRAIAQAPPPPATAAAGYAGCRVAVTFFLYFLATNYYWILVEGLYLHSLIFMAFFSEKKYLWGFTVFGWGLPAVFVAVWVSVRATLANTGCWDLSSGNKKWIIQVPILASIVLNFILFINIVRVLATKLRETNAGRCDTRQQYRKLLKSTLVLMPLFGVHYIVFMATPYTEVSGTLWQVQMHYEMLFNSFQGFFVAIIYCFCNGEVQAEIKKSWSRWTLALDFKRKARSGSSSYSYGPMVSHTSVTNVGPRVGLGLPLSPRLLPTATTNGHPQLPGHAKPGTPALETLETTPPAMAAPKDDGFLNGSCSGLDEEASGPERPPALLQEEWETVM

[2] = target: T2, wild-type human P1R (hP1R-WT) (Homo sapiens, UniProt Q03431); experiment: cAMP stimulation in COS-7 cells expressing hP1R-WT; assay type: cell-based; conditions: hP1R-WT, basal 10.3 ± 1.1, asterisk = plateau not attained
T2 construct: expressed in transfected cells; host or cells: COS-7 (transient, FuGENE 6)
T2 sequence (Q03431 27-593): T1 sequence (Q03431 27-593)
Procedure: (§1) Cell Culture. The cell line HKRK-B28 (Takasu, H., et al., J. Bone Miner. Res. 14:11-20 (1999)) was derived from the porcine kidney cell line, LLC-PK1 by stable transfection with plasmid DNA encoding the human P1R and expresses ˜280,000 receptors per cell. These cells, as well as COS-7 cells and SaOS-2-B10 cells, were cultured at […] in T-75 flasks ([…]) in Dulbecco's modified Eagle's medium (DMEM) supplemented with fetal bovine serum (10%), penicillin G (20 units/ml), streptomycin sulfate (20 μg/ml) and amphotericin B (0.05 μg/ml) in a humidified atmosphere containing 5% CO2. Stock solutions of EGTA/trypsin and antibiotics were from GIBCO; fetal bovine serum was from Hyclone Laboratories (Logan, Utah). COS-7 cells sub-cultured in 24-well plates were transfected with plasmid DNA (200 ng per well) encoding the wild-type human P1R or truncated human P1R deleted for residues (24-181) (Shimizu, M., et al., J. Biol. Chem. 275:21836-21843 (2000)) that was purified by cesium chloride/ethidium bromide density gradient centrifugation, and FuGENE 6 transfection reagent (Roche Indianapolis Ind.) according to the manufacturer's recommended procedure. All cells, in 24-well plates, were treated with fresh media and shifted to 33° C. for 12 to 24 h prior to assay.
(§2) cAMP Stimulation. Stimulation of cells with peptide analogs was performed in 24-well plates. Cells were rinsed with 0.5 mL of binding buffer (50 mM Tris-HCI, […], 5 mM KCl, 2 mM CaCl2, 5% heat-inactivated horse serum, 0.5% fetal bovine serum, adjusted to pH 7.5 with HCl) and treated with 200 μL of cAMP assay buffer (Delbecco's modified Eagle's medium containing 2 mM 3-isobutyl-1-methylxanthine, 1 mg/mL bovine serum albumin, 35 mM Hepes-NaOH, pH 7.4) and 100 μL of binding buffer containing varying amounts of peptide analog (final volume=300 μL). The medium was removed after incubation for 30 to 60 minutes at room temperature, and the cells were frozen on dry ice, lysed with 0.5 mL 50 mM HCl, and refrozen ([…]). The cAMP content of the diluted lysate was determined by radioimmunoassay. The EC50 response values were calculated using nonlinear regression (see below).
(§3) Data Calculation. Calculations were performed using Microsoft® Excel. Nonlinear regression analyses of binding and cAMP dose-response data were performed using the four-parameter equation: yp=Min+[(Max−Min)/(1+(IC50/x)^slope)]. The Excel Solver function was utilized for parameter optimization, as described previously (Carter, P. H., et al., Endocrinology 140: 4972-4981 (1999); Bowen, W. P., and Jerman, J. C., Trends in Pharmacol. Sci. 16: 413-417 (1995)). Differences between paired data sets were statistically evaluated using a one-tailed Student's t-test, assuming unequal variances for the two sets.

[3] = target: T3, P1R-delNt, truncated human P1R deleted for residues (24-181) (Homo sapiens, UniProt Q03431); experiment: cAMP stimulation in COS-7 cells expressing hP1R-delNt; assay type: cell-based; conditions: hP1R-delNT, basal 9.5 ± 1.3, asterisk = plateau not attained
T3 construct: expressed in transfected cells; host or cells: COS-7 (transient, FuGENE 6)
T3 sequence (Q03431 with tags, fused parts or gaps limits assumed): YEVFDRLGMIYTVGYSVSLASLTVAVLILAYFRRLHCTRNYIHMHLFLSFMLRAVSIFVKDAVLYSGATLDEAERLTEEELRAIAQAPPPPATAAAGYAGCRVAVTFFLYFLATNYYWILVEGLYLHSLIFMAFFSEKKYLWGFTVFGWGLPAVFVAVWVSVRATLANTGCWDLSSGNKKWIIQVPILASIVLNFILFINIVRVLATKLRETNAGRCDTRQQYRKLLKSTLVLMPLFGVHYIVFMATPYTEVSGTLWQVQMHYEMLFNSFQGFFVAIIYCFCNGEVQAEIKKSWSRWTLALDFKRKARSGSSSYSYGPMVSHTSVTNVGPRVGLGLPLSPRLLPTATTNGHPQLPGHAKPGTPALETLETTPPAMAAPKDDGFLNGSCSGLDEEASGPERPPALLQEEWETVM
Procedure: as §1, §2, §3
The possibility that the activity-enhancing effects of the Aib substitutions at positions 1 and 3 were mediated through the juxtamembrane (J) region of the receptor was investigated in COS-7 cells transiently transfected with P1R-delNt. P1R-delNt was a truncated P1R that lacked most of the amino-terminal extracellular domain.

[4] = target: T2, wild-type human P1R (hP1R-WT); experiment: Competition binding in COS-7 cells expressing hP1R-WT; conditions: P1R-WT; Scatchard transformation of homologous competition binding; read-out: apparent equilibrium dissociation constant (KDapp)
Procedure: as §1
Competition Binding. Binding reactions were performed with HKRK-B28 cells or in COS-7 cells in 24-well plates. The cells were rinsed with 0.5 mL of binding buffer, and then treated successively with 100 μL binding buffer, 100 μL of binding buffer containing various amounts of unlabeled competitor ligand, and 100 μL of binding buffer containing ca. 100,000 cpm of ^125I-[M]PTH(1-21) or ^125I-[Aib^1,3,M]PTH(1-21)} (ca. 26 fmol; final volume=300 μL). Incubations were 4 to 6 h at 4° C., at which time near equilibrium conditions were attained. Cells were then placed on ice, the binding medium was removed, and the monolayer was rinsed three times with 0.5 mL of cold binding buffer. The cells were subsequently lysed with 0.5 mL […] and counted for radioactivity. For each tracer and in each experiment, the non-specific binding was determined as the radioactivity that bound in the presence of the same unlabeled peptide at a concentration of 1 μM, and was ˜1% of total radioactivity added for each tracer. The maximum specific binding (B0) was the total radioactivity bound in the absence of competing ligand, corrected for nonspecific binding, and for each tracer, ranged from 8% to 20% of the total radioactivity added. Nonlinear regression was used to calculate binding IC50 values (see below). Scatchard transformations of homologous competition binding data derived from studies with 26 fmol of ^125I-[Aib^1,3,M]PTH(1-21) were employed for estimations of apparent equilibrium dissociation constant (kDapps) and total number of ligand binding sites (Bmax), assuming a single class of binding sites and equal affinities of the iodinated and non iodinated ligand.
Data Calculation. Calculations were performed using Microsoft® Excel. Nonlinear regression analyses of binding and cAMP dose-response data were performed using the four-parameter equation: yp=Min+[(Max−Min)/(1+(IC50/x)^slope)]. […] Differences between paired data sets were statistically evaluated using a one-tailed Student's t-test, assuming unequal variances for the two sets. […]

[5] = target: T3, P1R-delNt, truncated human P1R deleted for residues (24-181); experiment: Competition binding in COS-7 cells expressing hP1R-delNt; conditions: COS-7 cells
[6] = Circular dichroism spectroscopy (helical content); assay type: physicochemical
Procedure: Circular Dichroism. Circular Dichroism spectra were recorded on a Jasco model 710 spectropolarimeter; peptides were analyzed at a concentration of20 μM in 50 mM sodium phosphate buffer pH 7.4, or the same buffer containing 2,2,2-trifluoroethanol at 20% (v/v). Spectroscopic scans were preformed at 20° C. and at wavelengths between […], with data recored at each 1 nM interval. The spectral bandwidth was 1.5 nM and 8 scans were accumulated and averaged for each sample. At each wavelength, the mean residue elipticity [θ×100/l×C×n); where θ is the raw elipticity value (in dimensions of millidegree), l is the sample path length, C=is the molar peptide concentration, and n is the number of residues in the peptide (Bowen, W. P., and Jerman, J. C., Trends in Pharmacol. Sci. 16: 413-417 (1995)). The helical content of each peptide was estimated by dividing [θ] observed at 222 nM for that peptide by −28,100, which is the reported [θ]222obs for a model helical decapeptide (Bowen, W. P., and Jerman, J. C., Trends in Pharmacol. Sci. 16: 413-417 (1995)).
Circular dichroism (CD) spectroscopy was used to analyze the potential effects that the Aib substitutions had on peptide secondary structure when the peptides were free in solution. Samples were analyzed in both aqueous phosphate buffer and in phosphate buffer containing 2,2,2-trifloroethanol, an organic solvent which promotes helical structure in oligopeptides, including PTH peptide fragments (Pellegrini, M., et al., J. Biol. Chem. 273:10420-10427 (1998); Gronwald, W., et al., Biol. Chem. Hoppe Seyler 377:175-186 (1996); Barden, J. A., and Kemp, B. E., Biochemistry 32:7126-7132 (1993)). In phosphate buffer, the helical content of each peptide, estimated from the elipticity observed at 222 nM, was small (≦16%); however, [Aib^1,3,M]PTH(1-14) contained nearly twice as much helix as did [M]PTH(1-14) (16% and 8.1% respectively), as did [Aib^1,3,M]PTH(1-1l), as compared to […] (13% and 7.5% respectively, Table 4). […] The higher helical contents of these two peptides were evident not only from the negative elipticities at […] and 222 nM, but also from the positive elipticities at 192 nM (FIG. 6).

human P1R [7] = target: T1, human P1R; conditions: HKRK-B28 cells; previously shown (Shimizu et al., Endocrinology 2001); read-out: cAMP EC50; cited from earlier work

| Compound | cAMP EMax(obs.) (human P1R [1]) [pmole/well] | cAMP EMax(obs.) [2] [pmole/well] | cAMP EMax(obs.) [3] [pmole/well] | Kd [4] [nM] | affinity at P1R-delNt, fold weaker than at P1R-WT [5] [fold] | Binding IC50 ([5]; hP1R-delNT, tracer 125I-[Aib^1,3,M]PTH(1-21), N.B. = no inhibition of tracer binding) | [0]222obs × 10^−3, Phos. ([6]; 20 μM peptide, 50 mM phosphate buffer pH 7.4) | [0]222obs × 10^−3, Phos + TFE ([6]; 20 μM peptide, 50 mM phosphate buffer with trifluoroethanol (20%)) | helical residues (%), Phos + TFE ([6]; 50 mM phosphate buffer with trifluoroethanol (20%), from elipticity at 222 nM) [%] | helical residues (%), Phos. ([6]; 50 mM phosphate buffer, from elipticity at 222 nM) [%] | EC50 (human P1R [7]) [nM] |
| --- | --- | --- | --- | --- | --- | --- | --- | --- | --- | --- | --- |
| CCCC[C@H](NC(=O)[C@H](CC(C)C)NC(=O)[C@H](CCC(N)=O)NC(=O)[C@@H](NC(=O)[C@H](CCC(=O)O)NC(=O)C(C)(C)NC(=O)[C@@H](NC(=O)C(C)(C)N)C(C)C)[C@@H](C)CC)C(=O)N[C@@H](Cc1c[nH]cn1)C(=O)N[C@@H](CCC(N)=O)C(=O)N[C@@H](CCCCNC(=N)N)C(=O)N[C@@H](C)C(=O)N[C@@H](CCCCN)C(=O)N[C@@H](Cc1c[nH]c2ccccc12)C(=O)N[C@@H](CC(C)C)C(=O)N[C@@H](C)C(=O)N[C@@H](CO)C(=O)N[C@H](C(=O)N[C@@H](CCCNC(=N)N)C(=O)N[C@@H](CCCNC(=N)N)C(=O)N[C@@H](Cc1ccc(O)cc1)C(N)=O)C(C)C [[Aib^1,3,M]PTH(1-21), AibValAibGluIleGlnLeuNleHisGlnHarAlaLysTrpLeu-AlaSerValArgArtTyr] (H-[Aib]V[Aib]EIQL[Nle]HQ[hArg]AKWLASVRRY-NH2) | 284 ± 76 | 300 ± 30 | 240 ± 20 | 17 ± 2 | < 2 | effectively inhibited the binding | – | – | – | – | – |
| [Ala^3,Gln^10,Har^11]PTH(1-11)amide [[M]PTH(1-11)] | – | – | – | – | – | – | −2.1 | −9.9 | 35 | 7.5 | 3000 |
| [Ala^3,Gln^10]PTH(1-10) (SVAEIQLMHQ-NH2; UniProt P01270 32-41, looked up, variant S3A N10Q) | – | – | – | – | – | – | – | – | – | – | ~800000 |

From patent US7572765B2, “Conformationally constrained parathyroid hormone (PTH) analogs” (The General Hospital Corporation, priority 2001, dated 2009)
